Assay [1] deals with T1, Hormonally up-regulated neu tumor-associated kinase (Homo sapiens) (UniProt P57058).
T1 sequence (whole entry): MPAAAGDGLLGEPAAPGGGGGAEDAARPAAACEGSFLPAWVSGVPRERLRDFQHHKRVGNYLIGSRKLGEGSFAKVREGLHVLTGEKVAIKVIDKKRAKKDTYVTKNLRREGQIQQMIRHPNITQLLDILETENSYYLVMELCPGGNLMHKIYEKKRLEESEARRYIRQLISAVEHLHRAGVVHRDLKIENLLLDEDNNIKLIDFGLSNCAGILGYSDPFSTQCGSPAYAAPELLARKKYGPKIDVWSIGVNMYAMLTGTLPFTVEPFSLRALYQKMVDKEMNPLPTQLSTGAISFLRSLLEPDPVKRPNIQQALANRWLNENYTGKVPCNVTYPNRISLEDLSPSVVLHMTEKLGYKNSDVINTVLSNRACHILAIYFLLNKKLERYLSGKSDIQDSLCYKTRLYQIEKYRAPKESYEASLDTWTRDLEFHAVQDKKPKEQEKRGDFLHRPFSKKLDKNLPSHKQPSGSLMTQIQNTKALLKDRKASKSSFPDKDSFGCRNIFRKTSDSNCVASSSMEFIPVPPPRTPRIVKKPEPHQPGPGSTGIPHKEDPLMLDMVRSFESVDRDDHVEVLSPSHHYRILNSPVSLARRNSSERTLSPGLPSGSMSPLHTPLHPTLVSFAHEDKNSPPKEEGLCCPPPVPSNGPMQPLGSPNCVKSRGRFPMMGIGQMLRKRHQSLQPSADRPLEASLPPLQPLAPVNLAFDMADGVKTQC
Briefly: Inhibition of HUNK (unknown origin) assessed as residual activity at 100 nM by KINOMEscan analysis relative to control.

The target in assay [2] is T2, Serine/threonine-protein kinase Sgk2 (Homo sapiens) (UniProt Q9HBY8).
T2 sequence (whole entry): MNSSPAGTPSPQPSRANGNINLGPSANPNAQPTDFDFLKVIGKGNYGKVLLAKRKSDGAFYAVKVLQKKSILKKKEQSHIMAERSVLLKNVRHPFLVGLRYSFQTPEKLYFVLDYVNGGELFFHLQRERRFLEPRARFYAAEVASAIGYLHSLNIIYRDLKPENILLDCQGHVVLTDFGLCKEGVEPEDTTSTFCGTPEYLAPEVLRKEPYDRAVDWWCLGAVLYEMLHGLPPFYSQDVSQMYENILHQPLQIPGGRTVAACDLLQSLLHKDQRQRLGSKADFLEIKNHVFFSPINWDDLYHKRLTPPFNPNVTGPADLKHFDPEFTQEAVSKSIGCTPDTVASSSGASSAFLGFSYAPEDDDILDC
Kind of assay: Inhibition of SGK2 (unknown origin) assessed as residual activity at 100 nM by KINOMEscan analysis relative to control.

Assay [3] addresses Dual specificity mitogen-activated protein kinase kinase 1 (Homo sapiens) (UniProt Q02750). Kind of assay: Inhibition of MEK1 (unknown origin) assessed as residual activity at 100 nM by KINOMEscan analysis relative to control.
For assay [4], the target named is Cyclin-dependent kinase 14 (Homo sapiens) (UniProt O94921). Briefly: Inhibition of PFTK1 (unknown origin) assessed as residual activity at 100 nM by KINOMEscan analysis relative to control.
In assay [5] the target is Mast/stem cell growth factor receptor Kit (Homo sapiens) (UniProt P10721). Briefly: Inhibition of KIT (unknown origin) assessed as residual activity at 100 nM by KINOMEscan analysis relative to control.
Assay [6] concerns the target T3, Phosphorylase b kinase gamma catalytic chain, liver/testis isoform (Homo sapiens) (UniProt P15735).
T3 sequence (whole entry): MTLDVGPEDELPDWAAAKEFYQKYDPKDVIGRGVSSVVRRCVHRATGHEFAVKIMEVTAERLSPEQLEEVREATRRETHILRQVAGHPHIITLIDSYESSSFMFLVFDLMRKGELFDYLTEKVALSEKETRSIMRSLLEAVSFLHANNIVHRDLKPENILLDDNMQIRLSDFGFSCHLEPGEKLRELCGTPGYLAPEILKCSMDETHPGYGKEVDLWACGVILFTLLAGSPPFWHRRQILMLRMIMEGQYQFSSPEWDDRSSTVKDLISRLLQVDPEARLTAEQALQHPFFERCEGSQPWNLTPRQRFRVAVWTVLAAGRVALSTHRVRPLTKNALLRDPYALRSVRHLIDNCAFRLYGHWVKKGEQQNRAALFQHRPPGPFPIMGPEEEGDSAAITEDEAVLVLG
Kind of assay: Inhibition of PHKG2 (unknown origin) assessed as residual activity at 100 nM by KINOMEscan analysis relative to control.

Assay [7] has as its target T4, Discoidin domain-containing receptor 2 (Homo sapiens) (UniProt Q16832).
T4 sequence (whole entry): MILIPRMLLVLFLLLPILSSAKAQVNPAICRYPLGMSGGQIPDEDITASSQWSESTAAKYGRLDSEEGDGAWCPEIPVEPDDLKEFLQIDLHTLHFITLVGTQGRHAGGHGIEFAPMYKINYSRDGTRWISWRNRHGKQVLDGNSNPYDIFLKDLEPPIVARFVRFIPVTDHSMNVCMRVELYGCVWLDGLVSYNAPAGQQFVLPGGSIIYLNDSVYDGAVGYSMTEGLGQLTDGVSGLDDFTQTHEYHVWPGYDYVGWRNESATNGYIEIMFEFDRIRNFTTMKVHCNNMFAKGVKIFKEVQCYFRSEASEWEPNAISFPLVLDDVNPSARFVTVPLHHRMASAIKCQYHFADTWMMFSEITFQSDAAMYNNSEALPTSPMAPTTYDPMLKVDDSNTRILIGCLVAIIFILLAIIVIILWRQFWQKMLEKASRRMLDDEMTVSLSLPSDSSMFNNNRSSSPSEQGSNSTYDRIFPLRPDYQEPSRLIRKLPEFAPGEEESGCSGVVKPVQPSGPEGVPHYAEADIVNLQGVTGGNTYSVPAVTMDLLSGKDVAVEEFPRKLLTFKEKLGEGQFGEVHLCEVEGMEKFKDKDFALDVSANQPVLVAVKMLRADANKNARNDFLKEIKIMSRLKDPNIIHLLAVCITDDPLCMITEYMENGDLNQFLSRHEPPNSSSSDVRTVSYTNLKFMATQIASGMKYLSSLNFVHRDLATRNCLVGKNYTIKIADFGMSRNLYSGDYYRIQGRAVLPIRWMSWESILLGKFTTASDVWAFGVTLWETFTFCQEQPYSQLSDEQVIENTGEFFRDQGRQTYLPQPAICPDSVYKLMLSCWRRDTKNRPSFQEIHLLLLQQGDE
Briefly: Inhibition of DDR2 (unknown origin) assessed as residual activity at 100 nM by KINOMEscan analysis relative to control.

Each structure is given as a SMILES string.

Sequence of Mast/stem cell growth factor receptor Kit (Homo sapiens) (P10721 whole entry, canonical isoform): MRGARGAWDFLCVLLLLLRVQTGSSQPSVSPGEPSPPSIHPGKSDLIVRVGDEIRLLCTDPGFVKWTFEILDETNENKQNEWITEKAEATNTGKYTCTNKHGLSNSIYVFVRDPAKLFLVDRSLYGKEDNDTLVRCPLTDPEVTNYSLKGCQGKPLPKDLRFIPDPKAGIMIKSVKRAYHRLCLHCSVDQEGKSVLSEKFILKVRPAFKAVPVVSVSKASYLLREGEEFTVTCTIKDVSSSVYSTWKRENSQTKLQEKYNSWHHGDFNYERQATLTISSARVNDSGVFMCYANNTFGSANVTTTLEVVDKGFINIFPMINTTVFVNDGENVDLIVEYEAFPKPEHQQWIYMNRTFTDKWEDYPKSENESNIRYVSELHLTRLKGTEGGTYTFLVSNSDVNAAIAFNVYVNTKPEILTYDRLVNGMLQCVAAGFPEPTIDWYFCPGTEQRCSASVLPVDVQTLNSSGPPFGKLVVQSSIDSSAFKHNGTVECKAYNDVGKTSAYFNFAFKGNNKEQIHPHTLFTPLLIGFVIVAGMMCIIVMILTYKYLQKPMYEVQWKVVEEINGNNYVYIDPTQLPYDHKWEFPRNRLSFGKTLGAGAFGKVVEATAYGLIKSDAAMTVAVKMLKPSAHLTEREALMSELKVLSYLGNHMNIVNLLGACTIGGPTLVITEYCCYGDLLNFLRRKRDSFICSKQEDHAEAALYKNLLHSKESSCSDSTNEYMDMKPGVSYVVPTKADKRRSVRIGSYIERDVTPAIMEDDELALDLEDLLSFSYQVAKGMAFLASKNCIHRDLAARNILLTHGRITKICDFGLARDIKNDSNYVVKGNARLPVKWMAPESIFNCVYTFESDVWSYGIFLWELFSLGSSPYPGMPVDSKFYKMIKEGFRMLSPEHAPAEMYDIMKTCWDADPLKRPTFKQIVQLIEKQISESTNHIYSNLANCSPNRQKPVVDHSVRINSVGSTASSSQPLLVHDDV
Sequence of Cyclin-dependent kinase 14 (Homo sapiens) (O94921 whole entry): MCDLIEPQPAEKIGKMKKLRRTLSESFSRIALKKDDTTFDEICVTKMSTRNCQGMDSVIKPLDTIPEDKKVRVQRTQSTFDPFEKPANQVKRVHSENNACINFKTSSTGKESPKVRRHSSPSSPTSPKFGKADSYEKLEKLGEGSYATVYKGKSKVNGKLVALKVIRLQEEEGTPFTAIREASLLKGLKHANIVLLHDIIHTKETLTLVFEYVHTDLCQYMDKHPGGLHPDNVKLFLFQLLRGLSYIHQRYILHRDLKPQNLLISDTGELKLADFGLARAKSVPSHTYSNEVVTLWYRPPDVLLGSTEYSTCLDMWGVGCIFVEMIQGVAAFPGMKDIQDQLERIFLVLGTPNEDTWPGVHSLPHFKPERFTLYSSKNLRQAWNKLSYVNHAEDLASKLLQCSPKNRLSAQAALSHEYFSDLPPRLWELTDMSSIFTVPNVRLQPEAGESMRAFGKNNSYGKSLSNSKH
Sequence of Dual specificity mitogen-activated protein kinase kinase 1 (Homo sapiens) (Q02750 whole entry): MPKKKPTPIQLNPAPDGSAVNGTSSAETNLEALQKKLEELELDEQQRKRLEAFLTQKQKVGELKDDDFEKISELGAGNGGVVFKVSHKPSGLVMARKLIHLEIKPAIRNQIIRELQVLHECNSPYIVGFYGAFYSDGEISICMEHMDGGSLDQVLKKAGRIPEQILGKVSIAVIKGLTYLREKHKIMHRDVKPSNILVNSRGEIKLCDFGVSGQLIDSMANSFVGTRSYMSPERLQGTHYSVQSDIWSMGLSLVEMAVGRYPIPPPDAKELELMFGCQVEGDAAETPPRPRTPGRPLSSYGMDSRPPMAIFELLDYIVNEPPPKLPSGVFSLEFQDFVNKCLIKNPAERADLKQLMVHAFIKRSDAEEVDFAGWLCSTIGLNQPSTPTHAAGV

As to `COc1cc2ncnc(N[C@H](C)c3cccc4ccccc34)c2cc1OC`, the Activity turned out to be 91% in assay [1]; 97% in assay [2]; 98% in assay [3]; 91% in assay [4]; 100% in assay [5]; 100% in assay [6]. In assay [7], the Activity came to 67%.

The values above are taken from ChEMBL document CHEMBL5678818, “Discovery of potent SOS1 inhibitors that block RAS activation via disruption of the RAS-SOS1 interaction” (Proc Natl Acad Sci U S A, 2019).
